Test results reported in paper PMC8021118, “Shared recognition of citrullinated tenascin-C peptides by T and B cells in rheumatoid arthritis” (JCI Insight, 2021).
Like-named read-outs stand apart in the source and are kept apart here. Where a SMILES comes first, the peptide text is derived from it. Where no end group is shown, it is not given here. [ ]: non-standard residue; d: D form. Cit = NC(=O)NCCC[C@H](N)C(=O)O

Experiments:
HLA-DRB1*04:01 = HLA-DRB1*04:01 (Homo sapiens, UniProt P01903+P01911, A100K/A169T/F76Y/I96L/K127E/L162R/M171V/N62H/P40V/Q125Y/R42H/S133A/S149N/S66Y/V115G/V209L/W38E); assay: Peptide competition binding assay to HLA-DRB1*04:01; settings: for Binding to HLA-DRB1*04:01 (in words): 15-mer T cell peptides, EC50 cutoff for measurable binding 50 μM
[1] = system: CD4+ T cells in PBMC from HLA-DRB1*04:01+ subjects; assay: In vitro expansion of peptide-specific CD4+ T cells from PBMC and HLA class II tetramer staining; type: cell-based, human; settings: for Responders (% in RA): RA subjects with positive in vitro response (>0.1% of CD4+ T cells tetramer+) of total tested, 10 μg/mL peptide, 14 days, n = 14, TNC44 and TNC59 n = 6; for Immunogenicity: Supplemental Table 1, ability to elicit an immune response in vitro (tetramer staining after expansion); for T cell responses in vitro (in words): noncitrullinated 15-mer versions
Description: TNC is a large protein (2110 amino acids in length) composed of an N-terminal assembly domain, 14.5 epidermal growth factor–like repeats (EGF-L), 8 constant fibronectin type III–like repeats (FNIII), and an additional 9 alternatively spliced FNIII elements, and a C-terminal fibrinogen-like globe (FBG) ([16]). Using a previously described algorithm ([9], [24]), we scanned the entire length of the TNC monomer and identified 64 arg-containing peptides with motifs that would predict to permit binding to HLA-DRB1*04:01 in either their noncitrullinated native form, citrullinated form, or both. Based on these predictions, we synthesized the citrullinated versions of these peptides and tested their ability to bind HLA-DRB1*04:01 and to elicit CD4^+ T cell expansion in vitro. Of the peptides synthesized, 8 cit-TNC peptides bound to HLA-DRB1*04:01 with moderate to high affinity (Table 1). Among these, cit-TNC17, cit-TNC22, cit-TNC45, cit-TNC50, and cit-TNC56 were determined to be the most immunogenic, based on their ability to drive epitope-specific T cell expansion, as measured by HLA class II tetramer (Tmr) staining of peripheral blood mononuclear cells (PBMC) from HLA-DRB1*04:01^+ subjects following 2 weeks of in vitro expansion (Table 1 and Supplemental Figure 1; supplemental material available online with this article; https://doi.org/10.1172/jci.insight.145217DS1).
Recombinant HLA-DRB1*04:01 protein was produced by the BRI Tetramer Core as previously described ([56]). Soluble HLA-DRB1*04:01 monomer was purified from insect cell culture supernatants and biotinylated at a sequence-specific site using biotin ligase (Avidity) prior to dialysis into phosphate storage buffer. The biotinylated monomer was loaded with 0.2 mg/mL of peptide by incubating at 37°C for 72 hours in the presence of 2.5 mg/mL n-octyl β-D-glucopyranoside and 1 mM Pefabloc SC (Sigma-Aldrich). Peptide-loaded monomers were conjugated into Tmrs using fluorescently labeled streptavidin (Invitrogen) for 6–18 hours at room temperature at a molar ratio of 8:1.
Cryopreserved PBMCs from RA and healthy subjects were cultured at 5 × 10^6 cells/well in a 48-well plate in RPMI-1640 + 10% HPS with 10 μg/mL of peptide. IL-2 (Novartis) was added at 325 IU/mL on day 6. On day 14, cells were stained for expression of Tmr-PE, CD25 APC (BD Biosciences), and CD4 FITC (BioLegend) (Supplemental Table 8) and then run on a FACSCanto. The data were analyzed by FlowJo software version 10.

[2] = Supplemental Table 1, citrullinated (X) vs arginine (R) versions, cutoff in the peptide binding assay 50 μM

Molecule: CC[C@H](C)[C@H](NC(=O)[C@H](CC(C)C)NC(=O)[C@H](CO)NC(=O)[C@@H](N)C(C)C)C(=O)N[C@@H](CO)C(=O)N[C@@H](CCCNC(N)=O)C(=O)N[C@@H](CCCNC(N)=O)C(=O)NCC(=O)N[C@@H](CC(=O)O)C(=O)N[C@@H](CCSC)C(=O)N[C@@H](CO)C(=O)N[C@@H](CO)C(=O)N[C@@H](CC(N)=O)C(=O)N1CCC[C@H]1C(=O)N[C@@H](C)C(=O)O [TNC17] (H-VSLIS[Cit][Cit]GDMSSNPA-OH)
- EC50 (HLA-DRB1*04:01): 3.6 µM

Molecule: CC[C@H](C)[C@H](NC(=O)[C@H](CCC(=O)O)NC(=O)[C@H](C)NC(=O)[C@H](CCCNC(N)=O)NC(=O)[C@H](CC(C)C)NC(=O)[C@@H]1CCCN1C(=O)[C@H](CCCCN)NC(=O)[C@@H](N)[C@@H](C)O)C(=O)N[C@H](C(=O)N[C@H](C(=O)N[C@@H](CCC(=O)O)C(=O)N[C@@H](C)C(=O)N[C@@H](CCC(=O)O)C(=O)N1CCC[C@H]1C(=O)N[C@@H](CCC(=O)O)C(=O)O)[C@@H](C)O)C(C)C [TNC44] (H-TKPL[Cit]AEIVTEAEPE-OH)
- EC50 (HLA-DRB1*04:01): 33.3 µM
- Responders (% in RA) [1]: 33%

Molecule: CC[C@H](C)[C@H](NC(=O)[C@H](C)NC(=O)[C@@H]1CCCN1C(=O)[C@H](CCC(N)=O)NC(=O)[C@H](Cc1c[nH]c2ccccc12)NC(=O)[C@H](CCCNC(N)=O)NC(=O)[C@H](C)NC(=O)[C@@H](N)CC(C)C)C(=O)N[C@@H](C)C(=O)N[C@H](C(=O)N[C@H](C(=O)N[C@@H](CC(=O)O)C(=O)N[C@@H](CO)C(=O)N[C@@H](Cc1ccc(O)cc1)C(=O)N[C@H](C(=O)O)C(C)C)C(C)C)[C@@H](C)O [TNC52] (H-LA[Cit]WQPAIATVDSYV-OH)
- EC50 (HLA-DRB1*04:01): 28.8 µM
- Responders (% in RA) [1]: 33%

Molecule: CC(C)C[C@H](NC(=O)[C@H](CCC(=O)O)NC(=O)[C@H](Cc1ccc(O)cc1)NC(=O)[C@H](CCC(N)=O)NC(=O)CNC(=O)[C@@H](N)CCC(N)=O)C(=O)N[C@@H](CCCNC(N)=O)C(=O)N[C@H](C(=O)N[C@@H](CC(=O)O)C(=O)N[C@@H](CC(C)C)C(=O)N[C@@H](CCCNC(N)=O)C(=O)N[C@@H](CC(=O)O)C(=O)N[C@@H](Cc1c[nH]cn1)C(=O)NCC(=O)N[C@@H](CCC(=O)O)C(=O)O)C(C)C [TNC56] (H-QGQYEL[Cit]VDL[Cit]DHGE-OH)
- EC50 (HLA-DRB1*04:01): 9 µM

Molecule: CSCC[C@H](NC(=O)[C@@H](N)CO)C(=O)N[C@@H](C)C(=O)N[C@@H](Cc1ccc(O)cc1)C(=O)N[C@@H](Cc1c[nH]cn1)C(=O)N[C@@H](CC(N)=O)C(=O)NCC(=O)N[C@@H](CCCNC(N)=O)C(=O)N[C@@H](CO)C(=O)N[C@@H](Cc1ccccc1)C(=O)N[C@@H](CO)C(=O)N[C@H](C(=O)N[C@@H](Cc1ccccc1)C(=O)N[C@@H](CC(=O)O)C(=O)N[C@@H](CCCCN)C(=O)O)[C@@H](C)O [TNC59] (H-SMAYHNG[Cit]SFSTFDK-OH)
- EC50 (HLA-DRB1*04:01): 25 µM
- Responders (% in RA) [1]: 33%

Molecule: CC[C@H](C)[C@H](NC(=O)[C@H](CC(C)C)NC(=O)[C@H](CO)NC(=O)[C@@H](N)C(C)C)C(=O)N[C@@H](CO)C(=O)N[C@@H](CCCNC(=N)N)C(=O)N[C@@H](CCCNC(N)=O)C(=O)NCC(=O)N[C@@H](CC(=O)O)C(=O)N[C@@H](CCSC)C(=O)N[C@@H](CO)C(=O)N[C@@H](CO)C(=O)N[C@@H](CC(N)=O)C(=O)N1CCC[C@H]1C(=O)N[C@@H](C)C(=O)O [TNC-17RX] (H-VSLISR[Cit]GDMSSNPA-OH)
- EC50 (HLA-DRB1*04:01; [2]): 4.7 µM

Molecule: CC[C@H](C)[C@H](NC(=O)[C@H](CC(C)C)NC(=O)[C@H](CO)NC(=O)[C@@H](N)C(C)C)C(=O)N[C@@H](CO)C(=O)N[C@@H](CCCNC(N)=O)C(=O)N[C@@H](CCCNC(=N)N)C(=O)NCC(=O)N[C@@H](CC(=O)O)C(=O)N[C@@H](CCSC)C(=O)N[C@@H](CO)C(=O)N[C@@H](CO)C(=O)N[C@@H](CC(N)=O)C(=O)N1CCC[C@H]1C(=O)N[C@@H](C)C(=O)O [TNC-17XR] (H-VSLIS[Cit]RGDMSSNPA-OH)
- EC50 (HLA-DRB1*04:01; [2]): > 50 µM

Molecule: CC(C)C[C@H](NC(=O)[C@H](CCCNC(N)=O)NC(=O)[C@H](Cc1ccc(O)cc1)NC(=O)[C@H](CCCNC(=N)N)NC(=O)[C@H](CC(=O)O)NC(=O)[C@@H](N)Cc1ccccc1)C(=O)N[C@@H](CC(N)=O)C(=O)N[C@@H](Cc1ccc(O)cc1)C(=O)N[C@@H](CO)C(=O)N[C@@H](CC(C)C)C(=O)N1CCC[C@H]1C(=O)N[C@H](C(=O)NCC(=O)N[C@@H](CCC(N)=O)C(=O)N[C@@H](Cc1c[nH]c2ccccc12)C(=O)O)[C@@H](C)O [TNC-22RX] (H-FDRY[Cit]LNYSLPTGQW-OH)
- EC50 (HLA-DRB1*04:01; [2]): 0.9 µM
- Immunogenicity [1]: Yes

Molecule: CC(C)C[C@H](NC(=O)[C@H](CCCNC(=N)N)NC(=O)[C@H](Cc1ccc(O)cc1)NC(=O)[C@H](CCCNC(N)=O)NC(=O)[C@H](CC(=O)O)NC(=O)[C@@H](N)Cc1ccccc1)C(=O)N[C@@H](CC(N)=O)C(=O)N[C@@H](Cc1ccc(O)cc1)C(=O)N[C@@H](CO)C(=O)N[C@@H](CC(C)C)C(=O)N1CCC[C@H]1C(=O)N[C@H](C(=O)NCC(=O)N[C@@H](CCC(N)=O)C(=O)N[C@@H](Cc1c[nH]c2ccccc12)C(=O)O)[C@@H](C)O [TNC-22XR] (H-FD[Cit]YRLNYSLPTGQW-OH)
- EC50 (HLA-DRB1*04:01; [2]): 0.6 µM
- Immunogenicity [1]: Yes

Molecule: CC(C)C[C@H](NC(=O)[C@H](CCC(=O)O)NC(=O)[C@H](Cc1ccc(O)cc1)NC(=O)[C@H](CCC(N)=O)NC(=O)CNC(=O)[C@@H](N)CCC(N)=O)C(=O)N[C@@H](CCCNC(=N)N)C(=O)N[C@H](C(=O)N[C@@H](CC(=O)O)C(=O)N[C@@H](CC(C)C)C(=O)N[C@@H](CCCNC(N)=O)C(=O)N[C@@H](CC(=O)O)C(=O)N[C@@H](Cc1c[nH]cn1)C(=O)NCC(=O)N[C@@H](CCC(=O)O)C(=O)O)C(C)C [TNC-56RX] (H-QGQYELRVDL[Cit]DHGE-OH)
- EC50 (HLA-DRB1*04:01; [2]): > 50 µM

Molecule: CC(C)C[C@H](NC(=O)[C@H](CCC(=O)O)NC(=O)[C@H](Cc1ccc(O)cc1)NC(=O)[C@H](CCC(N)=O)NC(=O)CNC(=O)[C@@H](N)CCC(N)=O)C(=O)N[C@@H](CCCNC(N)=O)C(=O)N[C@H](C(=O)N[C@@H](CC(=O)O)C(=O)N[C@@H](CC(C)C)C(=O)N[C@@H](CCCNC(=N)N)C(=O)N[C@@H](CC(=O)O)C(=O)N[C@@H](Cc1c[nH]cn1)C(=O)NCC(=O)N[C@@H](CCC(=O)O)C(=O)O)C(C)C [TNC-56XR] (H-QGQYEL[Cit]VDLRDHGE-OH)
- EC50 (HLA-DRB1*04:01; [2]): 8.7 µM

Molecule: CEYEVSLISRRGDMSSNPAC [arg-TNC17, Cys-flanked arginine TNC17 peptide used in ELISA]
- Binding to HLA-DRB1*04:01 (in words) (HLA-DRB1*04:01): did not

Molecule: CPTAQVESFRITYVPITGGC [arg-TNC50, Cys-flanked arginine TNC50 peptide used in ELISA]
- Binding to HLA-DRB1*04:01 (in words) (HLA-DRB1*04:01): bound
- T cell responses in vitro (in words) [1]: had the ability to elicit T cell responses in vitro

Molecule: CQGQYELRVDLRDHGETAFC [arg-TNC56, Cys-flanked arginine TNC56 peptide used in ELISA]
- Binding to HLA-DRB1*04:01 (in words) (HLA-DRB1*04:01): did not

Molecule: CTPLAKFDRYRLNYSLPTGC [arg-TNC22, Cys-flanked arginine TNC22 peptide used in ELISA]
- Binding to HLA-DRB1*04:01 (in words) (HLA-DRB1*04:01): bound
- T cell responses in vitro (in words) [1]: had the ability to elicit T cell responses in vitro

Molecule: CVSDATPDGFRLSWTADEGC [arg-TNC45, Cys-flanked arginine TNC45 peptide used in ELISA]
- Binding to HLA-DRB1*04:01 (in words) (HLA-DRB1*04:01): bound
- T cell responses in vitro (in words) [1]: had the ability to elicit T cell responses in vitro

Molecule: FDRYRLNYSLPTGQW [TNC-22RR]
- EC50 (HLA-DRB1*04:01; [2]): 1 µM
- Immunogenicity [1]: Yes

Molecule: H-QGQYELRVDLRDHGE-OH [TNC-56RR]
- EC50 (HLA-DRB1*04:01; [2]): > 50 µM

Molecule: H-VSLISRRGDMSSNPA-OH [TNC-17RR]
- EC50 (HLA-DRB1*04:01; [2]): > 50 µM

Molecule: PDGFRLSWTADEGVF [TNC-45R]
- EC50 (HLA-DRB1*04:01; [2]): 5.7 µM
- Immunogenicity [1]: Yes

Molecule: VESFRITYVPITGGT [TNC-50R]
- EC50 (HLA-DRB1*04:01; [2]): 1 µM
- Immunogenicity [1]: Yes
